Data published in patent US20220387635A1, “PET IMAGING OF CANCEROUS CELLS USING 18F-FLUOROACETATE” (priority 2019, published 2022).
Entries after “also recorded” stand apart in the source; their conditions may differ.

Key:
NALM-6 ALL cells = experiment: In vitro radiotracer uptake in NALM-6 cells; format: cell-based; settings: for Uptake rate: normalized to [14C]-thymidine, Example 1; for Uptake rate (slope of linear trendline of cell:media ratio): uptake measured at 30, 60, 120 min, FIG. 1 legend
Method: Cell uptake studies were performed in the presence of [^3H]-flouroacetate, [^3H]-glucose, and [^14C]-thymidine. Uptake levels were measure at 30, 60, and 120-minute intervals and expressed as a ratio of cellular retention versus concentration in surrounding media (cell:media ratio). Uptake rates were determined as a function of the slope of linear trendline. [^3H]-flouroacetate uptake rates were higher (dotted line; 0.053 min^−1) compared to glucose (dashed line; 0.028 min-1) and thymidine (solid line; 0.024 min^−1).
In vitro uptake of [^3H]-FA, [^3H]-glucose, and [^14C]-thymidine. Radiotracer uptake studies were performed as described previously (Najjar et al., 2009). Briefly, 10^7 NALM-6 were suspended in 6 mL of RPMI medium containing 10% FBS, [^14C]thymidine (0.01 μCi/mL; Moravek, Brea, Calif., USA) and [^3H]-fluoroacetate (0.1 μCi/mL; Moravek) or [^14C]thymidine (0.01 μCi/mL and [^3H]-glucose (2.5 μCi/mL). At time intervals of 30, 60, and 120 minutes, 1 mL aliquots were removed and the cells were pelleted in pre-weighed vials. A […], aliquot of the supernatant was transferred to a pre-weighed scintillation tube. The pellets were weighed following removal of the remainder of the media and thoroughly resuspended in 0.1 mL of Soluene-350 (Perkin-Elmer, Boston, Mass.). Radioactive beta emissions of the media and cell pellets were measured within pre-calibrated energy ranges using a Packard Tri-Carb 3100TR scintillation counter to quantitate [^3H]-FA, [^3H]-glucose, and [^14C]-thymidine uptake. The activity accumulation ratios of the cell pellets to the media ([disintegrations per minute/g cells]/[disintegrations per minute/g media]) were then determined and plotted.
Accordingly, in vitro radiotracer uptake studies were performed to determine the metabolic preference of NALM-6 cells for uptake and retention of fluoroacetate and glucose. The accumulation [^3H]-fluoroacetate and [^3H]-glucose was measured and compared separate experiments (FIG. 1). Uptake levels were normalized to [^14C]-thymidine levels for direct comparison. […] The rates of [^3H]-glucose and [^14C]-thymidine were more closely matched at 0.028 and 0.024 min^−1, respectively.

[1] = test system: NALM-6 tumor within the central nervous system; experiment: Dynamic PET time-activity curve in brain and spinal cord; format: in vivo, mouse; settings: 1-hour dynamic PET; NALM-6 tumor-bearing (LMD) vs normal mice
Source text: Time-activity curve of [^18F]-fluoroacetate biodistribution within the brain and spinal cord. A dynamic PET scan was used to determine the time-dependent distribution [^18F]-fluoroacetate within regions-of-interest (ROI) in the brains and spinal cords of normal (control) and NALM-6 tumor-bearing (LMD) mice.

| SMILES | Uptake rate relative to [3H]-glucose (NALM-6 ALL cells) | Uptake rate (NALM-6 ALL cells) | Uptake rate (slope of linear trendline of cell:media ratio) (NALM-6 ALL cells) | Time-dependent distribution in brain and spinal cord ROI (time-activity curve) [1] |
| --- | --- | --- | --- | --- |
| [3H]C(F)C(=O)O (centres unmarked) [[^3H]-fluoroacetate] | nearly twice the rate | 0.056 min⁻¹ | 0.053 min⁻¹ |  |
| OC[C@H]1OC(O)[C@H](O)[C@@H](O)[C@@H]1O (some centres unmarked) [[^3H]-glucose] |  | 0.028 min⁻¹ | 0.028 min⁻¹ |  |
| O=C(O)C[18F] [[^18F]-fluoroacetate, ^18F-fluoroacetate] |  |  |  | preferential accumulation of the radiotracer in regions of NALM-6 tumor within the central nervous system; also recorded: higher baseline levels |
| Cc1cn([C@H]2C[C@H](O)[C@@H](CO)O2)c(=O)[nH]c1=O [[^14C]-thymidine] |  | 0.024 min⁻¹ | 0.024 min⁻¹ |  |
